# Test results: the supplement of paper PMC5770543
# ± gives the standard deviation.
# Key:
# [1] = test system: Plasmodium falciparum 3D7; experiment: EC50 growth inhibition (60 h, SYBR Green); conditions: stage: ring-stage start
# [2] = test system: Toxoplasma gondii RH tachyzoites; experiment: % growth inhibition vs DMSO (48 h luciferase); higher = more inhibition; conditions: 10 µM
# [3] = test system: Plasmodium falciparum 3D7; experiment: R50 (50% reduction of ring formation, egress/invasion); higher = less potent
# Method: (§1)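 P. falciparum asexual blood stages. EC50: sorbitol-synchronized 3D7 rings were treated with 2-fold dilutions from 10 µM for 60 h, with parasitemia read by SYBR Green I fluorescence; EC50 listed as 10 means not determined and is left out. Stage transition screen: ~40-42 hpi schizonts were treated at 1, 3 and 10 µM; new rings were counted by Hoechst flow cytometry and % inhibition is relative to DMSO controls (mean of 3 experiments). R50: concentration giving 50% reduction of new ring formation versus DMSO in 3D7, K1 and KH004-003, from flow cytometry after 12-20 h treatment of schizonts.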
# [4] = test system: Plasmodium falciparum K1 (chloroquine resistant); experiment: as above
# Method: as §1
# [5] = test system: Plasmodium falciparum KH004-003 (artemisinin resistant); experiment: as above
# Method: as §1
# [6] = test system: Plasmodium falciparum 3D7; experiment: % inhibition of schizont-to-ring transition vs DMSO; higher = more inhibition
# Procedure, shortened: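 Schizont-to-ring transition inhibition is the formation of new rings relative to vehicle controls. Tightly synchronised P. falciparum schizonts at about 40–42 hours post-invasion (1% parasitemia, 2.5% hematocrit, AlbuMAX-supplemented RPMI) were treated with compound at 1, 3 or 10 µM, alongside vehicle and positive controls. After glutaraldehyde fixation, Triton permeabilisation and Hoechst 33342 staining, at least 100,000 events were counted by flow cytometry, and values are the mean of three experiments.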
# [7] = test system: Toxoplasma gondii RH tachyzoites; experiment: median egress time after A23187 ionophore; higher = stronger egress inhibition; conditions: 10 µM; pretreatment time: 24 h
# Method: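 T. gondii RH tachyzoites expressing firefly luciferase were grown in HFF monolayers for 48 h with compound. % growth inhibition at 10 µM and EC50 (2-fold dilutions from 10 µM) were read by luminescence relative to 1% DMSO; EC50 listed as 10 (not determined, <80% inhibition) is left out. Plaque assays: 50 tachyzoites per well with 10 µM compound for 8-10 days, giving plaque count and area by crystal violet/ImageJ. Egress: median time to egress after 1 µM A23187 ionophore following 24 h of 10 µM compound (DMSO ~1.8 min; >10 = no egress within 10 min).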
# [8] = test system: Toxoplasma gondii RH tachyzoites; experiment: plaque count per well; higher = less inhibition; extreme values may be limits of the assay; conditions: 10 µM; 8-10 days
# Procedure, shortened: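 Delayed-death inhibition of parasite growth is read from the number of plaques per well. Fifty T. gondii RH tachyzoites went into each well of six-well plates with confluent HFF monolayers preseeded with compound at 10 µM, and after 8 to 10 days the plates were fixed with methanol, stained with crystal violet and counted in ImageJ.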
# 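For % growth inhibition vs DMSO (48 h luciferase) in this document: tested in triplicate wells of 96-well plates on confluent HFF monolayers, with 1% DMSO wells as negative control in four replicates.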
smiles,measurement,setting,value
Cc1cc(NC(=O)C2c3ccccc3C(=O)N(CC(C)C)C2c2cccs2)no1 (configuration not stated),EC50 growth inhibition,[1],64 nM
same,% growth inhibition,[2],< 0%
same,R50,[3],0.363 µM
same,R50,[4],0.307 µM
same,R50,[5],0.43 µM
same,% inhibition of schizont-to-ring transition,[6]; 1 µM,76.6%
same,% inhibition of schizont-to-ring transition,[6]; 3 µM,76.8%
same,% inhibition of schizont-to-ring transition,[6]; 10 µM,78.6%
same,median egress time,[7],5.73 min
same,plaque count per well,[8],29
COc1ccc(CCn2c(=N)c(C(=O)NCc3cccnc3)cc3c(=O)n4cccc(C)c4nc32)cc1,EC50 growth inhibition,[1],353 nM
same,% growth inhibition,[2],75.9 ± 1.6%
same,R50,[3],2.26 µM
same,R50,[4],2.1 µM
same,R50,[5],0.771 µM
same,% inhibition of schizont-to-ring transition,[6]; 1 µM,40.3%
same,% inhibition of schizont-to-ring transition,[6]; 3 µM,65.1%
same,% inhibition of schizont-to-ring transition,[6]; 10 µM,66.9%
same,median egress time,[7],2.13 min
CCOc1cc2c(cc1OCC)C(c1cc(OC)c(O)cc1Cl)NCC2 (configuration not stated),EC50 growth inhibition,[1],711 nM
same,% growth inhibition,[2],37.4 ± 13%
same,R50,[3],2.71 µM
same,R50,[4],0.342 µM
same,R50,[5],1.32 µM
same,% inhibition of schizont-to-ring transition,[6]; 1 µM,11.2%
same,% inhibition of schizont-to-ring transition,[6]; 3 µM,60%
same,% inhibition of schizont-to-ring transition,[6]; 10 µM,76.1%
same,median egress time,[7],2.27 min
CCN(Cc1ccccc1)C1CCN(Cc2cc(Br)ccc2O)CC1,EC50 growth inhibition,[1],310 nM
same,% growth inhibition,[2],< 0%
same,R50,[3],0.998 µM
same,R50,[4],0.491 µM
same,R50,[5],0.532 µM
same,% inhibition of schizont-to-ring transition,[6]; 1 µM,59.3%
same,% inhibition of schizont-to-ring transition,[6]; 3 µM,74.2%
same,% inhibition of schizont-to-ring transition,[6]; 10 µM,76.9%
same,median egress time,[7],> 10 min
same,plaque count per well,[8],24
CC(=O)NCCc1nc2ccccc2n1Cc1ccc(C(C)C)cc1,EC50 growth inhibition,[1],900 nM
same,% growth inhibition,[2],< 0%
same,R50,[3],3.03 µM
same,R50,[4],3.69 µM
same,R50,[5],3.03 µM
same,% inhibition of schizont-to-ring transition,[6]; 1 µM,37.3%
same,% inhibition of schizont-to-ring transition,[6]; 3 µM,61%
same,% inhibition of schizont-to-ring transition,[6]; 10 µM,78.1%
same,median egress time,[7],5.47 min
same,plaque count per well,[8],33
COc1cc(OC)c(N(C)C(=O)c2cc3c(s2)-c2ccccc2S(=O)(=O)C3)cc1Cl,EC50 growth inhibition,[1],1190 nM
same,% growth inhibition,[2],< 0%
same,R50,[3],0.868 µM
same,R50,[4],0.933 µM
same,R50,[5],0.352 µM
same,% inhibition of schizont-to-ring transition,[6]; 1 µM,55.9%
same,% inhibition of schizont-to-ring transition,[6]; 3 µM,60%
same,% inhibition of schizont-to-ring transition,[6]; 10 µM,66.3%
same,median egress time,[7],8.4 min
same,plaque count per well,[8],33
CNCCCNc1ccnc2cc(Cl)ccc12,EC50 growth inhibition,[1],25.8 nM
same,% growth inhibition,[2],21.4 ± 19%
same,R50,[3],0.345 µM
same,R50,[4],4.11 µM
same,R50,[5],3.81 µM
same,% inhibition of schizont-to-ring transition,[6]; 1 µM,61.4%
same,% inhibition of schizont-to-ring transition,[6]; 3 µM,66.5%
same,% inhibition of schizont-to-ring transition,[6]; 10 µM,71.6%
same,median egress time,[7],2.4 min
CC1(c2ccccc2)Nc2ccccc2-c2nc3ccccc3n21 (configuration not stated),EC50 growth inhibition,[1],194 nM
same,% growth inhibition,[2],24.3 ± 8%
same,R50,[3],0.768 µM
same,R50,[4],0.955 µM
same,R50,[5],0.275 µM
same,% inhibition of schizont-to-ring transition,[6]; 1 µM,56.1%
same,% inhibition of schizont-to-ring transition,[6]; 3 µM,77.5%
same,% inhibition of schizont-to-ring transition,[6]; 10 µM,79%
same,median egress time,[7],4.13 min
CCOc1c(Cl)cc(CNC(C)C(O)c2ccccc2)cc1OC (configuration not stated),EC50 growth inhibition,[1],926 nM
same,% growth inhibition,[2],18.8 ± 18%
same,R50,[3],3.32 µM
same,R50,[4],1.56 µM
same,R50,[5],2.58 µM
same,% inhibition of schizont-to-ring transition,[6]; 1 µM,2.61%
same,% inhibition of schizont-to-ring transition,[6]; 3 µM,19.5%
same,% inhibition of schizont-to-ring transition,[6]; 10 µM,72.7%
same,median egress time,[7],3.47 min
same,plaque count per well,[8],0
CCOC(=O)c1c(NC(=O)c2ccccc2)sc2c(O)c(CN(CC)CC)ccc12,EC50 growth inhibition,[1],8.57 nM
same,% growth inhibition,[2],65.8 ± 12%
same,R50,[3],0.186 µM
same,R50,[4],0.103 µM
same,R50,[5],0.138 µM
same,% inhibition of schizont-to-ring transition,[6]; 1 µM,57.2%
same,% inhibition of schizont-to-ring transition,[6]; 3 µM,69.3%
same,% inhibition of schizont-to-ring transition,[6]; 10 µM,71.9%
same,median egress time,[7],2.13 min
COc1cccc(NC(=O)[C@H](C(C)C)n2c(=O)[nH]c3ccccc3c2=O)c1,EC50 growth inhibition,[1],51.4 nM
same,% growth inhibition,[2],76.9 ± 9.3%
same,R50,[3],0.28 µM
same,R50,[4],0.212 µM
same,R50,[5],0.183 µM
same,% inhibition of schizont-to-ring transition,[6]; 1 µM,79.8%
same,% inhibition of schizont-to-ring transition,[6]; 3 µM,80.5%
same,% inhibition of schizont-to-ring transition,[6]; 10 µM,79.4%
same,median egress time,[7],2.67 min
COc1cccc(C2(C)Nc3ccccc3-c3nc4ccccc4n32)c1 (configuration not stated),EC50 growth inhibition,[1],217 nM
same,% growth inhibition,[2],12.6 ± 12%
same,R50,[3],1.13 µM
same,R50,[4],1.17 µM
same,R50,[5],0.715 µM
same,% inhibition of schizont-to-ring transition,[6]; 1 µM,66%
same,% inhibition of schizont-to-ring transition,[6]; 3 µM,81.1%
same,% inhibition of schizont-to-ring transition,[6]; 10 µM,81.2%
same,median egress time,[7],> 10 min
same,plaque count per well,[8],21
COc1ccc(C2c3ccc4ccccc4c3Oc3ncn(CCCn4ccnc4)c(=N)c32)cc1OC (configuration not stated),EC50 growth inhibition,[1],383 nM
same,% growth inhibition,[2],65.4 ± 9%
same,R50,[3],2.5 µM
same,R50,[4],2.92 µM
same,R50,[5],2.4 µM
same,% inhibition of schizont-to-ring transition,[6]; 1 µM,40%
same,% inhibition of schizont-to-ring transition,[6]; 3 µM,73.6%
same,% inhibition of schizont-to-ring transition,[6]; 10 µM,75.6%
same,median egress time,[7],2.27 min
CC(C)(C)c1ccc(O)c(CNC2CCCCC2)c1,EC50 growth inhibition,[1],93.3 nM
same,% growth inhibition,[2],7.99 ± 2.4%
same,R50,[3],0.305 µM
same,R50,[4],0.119 µM
same,R50,[5],0.215 µM
same,% inhibition of schizont-to-ring transition,[6]; 1 µM,70.4%
same,% inhibition of schizont-to-ring transition,[6]; 3 µM,76.8%
same,% inhibition of schizont-to-ring transition,[6]; 10 µM,76.9%
same,median egress time,[7],2.8 min
same,plaque count per well,[8],0
COc1ccc2c(c1)C1(Nc3ccccc3-c3nc4ccccc4n31)C(=O)N2 (configuration not stated),EC50 growth inhibition,[1],138 nM
same,% growth inhibition,[2],47.3 ± 3.5%
same,R50,[3],0.892 µM
same,R50,[4],0.768 µM
same,R50,[5],0.922 µM
same,% inhibition of schizont-to-ring transition,[6]; 1 µM,62%
same,% inhibition of schizont-to-ring transition,[6]; 3 µM,64.1%
same,% inhibition of schizont-to-ring transition,[6]; 10 µM,68.6%
same,median egress time,[7],2.33 min
O=C(NC1CCN(Cc2ccccc2)CC1)c1cc(C(=O)NC2CCN(Cc3ccccc3)CC2)cc(C(=O)NC2CCN(Cc3ccccc3)CC2)c1,EC50 growth inhibition,[1],1670 nM
same,% growth inhibition,[2],18.9 ± 16%
same,R50,[3],3.38 µM
same,R50,[4],0.179 µM
same,R50,[5],1.42 µM
same,% inhibition of schizont-to-ring transition,[6]; 1 µM,25.8%
same,% inhibition of schizont-to-ring transition,[6]; 3 µM,30.4%
same,% inhibition of schizont-to-ring transition,[6]; 10 µM,53.7%
same,median egress time,[7],2.33 min
same,plaque count per well,[8],35
